Measured values published in patent US20120022121A1, “INDOLES, DERIVATIVES AND ANALOGS THEREOF AND USES THEREFOR” (priority 2007, published 2012).

Columns and labels:
CV-1 = test: Cell viability SRB assay, 96 h; format: cell-based; conditions: Cercopithecidae, CV-1 fibroblast cell line
Procedure: (§1) Cells were plated in 96-well plates at a density of 800-5,000 cells/well, depending on the cell line, in their required growth media containing 10% fetal bovine serum. Preliminary studies were performed with each cell line using a variety of cell densities and incubation times to determine appropriate seeding densities. The compound of interest was dissolved in DMSO, diluted in cell culture medium (final DMSO concentration was less than 0.5% v/v), and added to quadruplicate wells at final concentrations ranging from 0 to 100 μM. Control wells to which only drug-free vehicle was added were included as negative controls.
(§2) Cells were incubated for 96 hour at 37° C. in a humidified atmosphere containing 5% carbon dioxide.

TSU = test: Cell viability SRB assay, 96 h; format: cell-based; conditions: Homo sapiens, TSU (TSU-Pr1)
Procedure: (§3) Cell viability (LNCaP, PC-3 prostate, DU145, PPC-1, and TSU-Pr1 prostate cancer cell lines, HT-29 colon cancer cell line, and MCF-7 breast cancer cell line) was quantitated using the sulforhodamine B (SRB) assay after 96 h coincubation with different concentrations of compound in 96-well plates. Cell viability of leukemia cells (K562 and doxorubicin-resistant K562/Dox) was quantitated by MTT assay after 96 h coincubation with different concentrations of compound in 96-well plates. Drug-induced apoptosis was determined by anti-histone ELISA assay and DNA laddering. Cell cycle progression was assessed by propidium iodide staining and fluorescence-activated cell sorting (FACS) analysis. In vitro tubulin polymerization assay was determined by CytoDYNAMIX ScreenTM3 (CDS-03) kits according to the manufacturer's instructions. Anti-apoptosis protein (Bcl-2 and Bcl-xl) and pro-apoptosis protein (Bax) were examined in LNCaP and PC-3 after 24 h incubation with different concentrations of compound 13 by Western blot assay. In vivo PC-3 xenograft studies were conducted by i.v. dosing of 50 mg/kg, 100 mg/kg and 150 mg/kg for 2 weeks.
as §1, §2
(§4) Cells were stained with SRB solution. […] WinNonlin was provided by a Pharsight Academic License to The Ohio State University.

PPC-1 [1] = test: Cell viability SRB assay, 96 h; format: cell-based; conditions: Homo sapiens, PPC-1, 96 h
Procedure: as §3, §1, §2, §4

DU-145 = test: Cell viability SRB assay, 96 h; format: cell-based; conditions: Homo sapiens, DU-145, 96 h
Procedure: as §3, §1, §2, §4

LNCaP [2] = test: Cell viability SRB assay, 96 h; format: cell-based; conditions: Homo sapiens
Procedure: as §3, §1, §2, §4

PC-3 [3] = test: Cell viability SRB assay, 96 h; format: cell-based; conditions: Homo sapiens, PC-3, 96 h
Procedure: as §3, §1, §2, §4

HT-29 = test: Cell viability SRB assay, 96 h; format: cell-based; conditions: Homo sapiens, HT-29, 96 h
Procedure: as §3, §1, §2, §4

MCF-7 = test: Cell viability SRB assay, 96 h; format: cell-based; conditions: Homo sapiens, MCF7; MCF-7, 96 h
Procedure: as §3, §1, §2, §4

PC-3 [4] = test: Cytotoxicity assay (SRB, 96 h); format: cell-based; conditions: Homo sapiens, PC-3, 96 h
[5] = tested on: melanoma and prostate cancer cell lines; test: Cytotoxicity assay (SRB), summary over the cell lines of Table 3; format: cell-based; conditions: Homo sapiens
PPC-1 [6] = test: Cytotoxicity assay (SRB, 96 h); format: cell-based; conditions: Homo sapiens, PPC-1, 96 h
A375 = test: Cytotoxicity assay (SRB, 48 h); format: cell-based, human
LNCaP [7] = test: Cytotoxicity assay (SRB, 96 h); format: cell-based; conditions: Homo sapiens
Du 145 = test: Cytotoxicity assay (SRB, 96 h); format: cell-based; conditions: Homo sapiens; Du 145, 96 h
WM164 = test: Cytotoxicity assay (SRB, 48 h); format: cell-based, human; conditions: WM164 melanoma
Rotarod performance = format: in vivo, ICR mice; conditions: 0.5 mg/kg i.p. q2d
Procedure: The training and rotarod test was conducted as described previously. Briefly, during the training phase for 2 consecutive days (3 trials/day), mice (10 mice/group) were trained to run in a rotarod apparatus without falling at a constant speed (12 rpm) for a maximum of 2 min. For the rotarod performance test, duration of each trial was less than 5 min. […] Tests were performed for 2 weeks (2 days/week). The animals were tested in three trials per day with an intertrial interval of 30 min. Animal performance was recorded as the average elapsed time for the mice to fall off.

[8] = Homo sapiens, A-375, 48 h, A375 melanoma

| Structure (SMILES) | IC50 (DU-145) [µM] | IC50 (LNCaP [2]) [µM] | IC50 (PC-3 [3]) [µM] | melting point [°C] | IC50 (CV-1) [µM] | IC50 (TSU) [µM] | IC50 (PPC-1 [1]) [µM] | IC50 (PC-3 [4]) [µM] | IC50 [5] [µM] | IC50 (PPC-1 [6]) [µM] | IC50 (LNCaP [7]) [µM] | IC50 (Du 145) [µM] | also measured |
| --- | --- | --- | --- | --- | --- | --- | --- | --- | --- | --- | --- | --- | --- |
| O=Cc1cccc(-c2cc3ccccc3n2S(=O)(=O)c2ccccc2)c1 [Compound 5] | 19.7 ± 1.3 | 17.7 ± 1.2 | 23.2 ± 1.4 | 126 to 138 | > 100 | 11.5 ± 0.1 | 13.9 ± 0.2 | – | – | – | – | – | – |
| O=S(=O)(c1ccccc1)n1c(-c2cccc(C(O)c3cc4ccccc4n3S(=O)(=O)c3ccccc3)c2)cc2ccccc21 (stereo not drawn) [Compound 8, (1-benzenesulfonyl-1H-indol-2-yl)-[3-(1-benzenesulfonyl-1H-indol-2-yl)phenyl]methanol] | > 100 | > 100 | > 100 | 81 to 83 | > 100 | > 100 | 30 | – | – | – | – | – | – |
| c1cc(Cc2cc3ccccc3[nH]2)cc(-c2cc3ccccc3[nH]2)c1 [Compound 10, (1H-Indol-2-yl)-[3-(1H-indol-2-yl)phenyl]methane] | 18.4 | > 50 | > 50 | 193 to 194 | > 50 | 20 to 50 | > 50 | – | – | – | – | – | IC50 (HT-29): 0.72 µM |
| COc1cccc(C(=O)c2cccc(-c3cc4ccccc4[nH]3)c2)c1 [Compound 81, [3-(1H-Indol-2-yl)-phenyl]-(3-methoxy-phenyl)-methanone] | 0.129 | 0.047 | 0.072 ± 0.013 | – | – | 0.042 | 0.043 | – | – | – | – | – | IC50 (HT-29): 0.1 µM; IC50 (MCF-7): 0.043 µM |
| COc1cc(OC)cc(C(=O)c2cccc(-c3cc4ccccc4[nH]3)c2)c1 [Compound 82, (3,5-Dimethoxy-phenyl)-[3-(1H-indol-2-yl)-phenyl]-methanone] | 0.134 | 0.082 | 0.075 ± 0.016 | – | – | 0.065 | 0.069 | – | – | – | – | – | IC50 (HT-29): 0.092 µM; IC50 (MCF-7): 0.054 µM |
| COc1cc(C(=O)c2cccc(-c3cc4cc(F)ccc4[nH]3)c2)cc(OC)c1OC [Compound 90, [3-(5-Fluoro-1H-indol-2-yl)-phenyl]-(3,4,5-trimethoxy-phenyl)-methanone] | 0.028 | 0.032 | 0.031 ± 0.004 | – | – | – | 0.028 | – | – | – | – | – | IC50 (MCF-7): 0.039 µM |
| COc1ccc2cc(C(=O)c3cc(OC)c(OC)c(OC)c3)[nH]c2c1 [Compound 114, (6-Methoxy-1H-indol-2-yl)(3,4,5-trimethoxyphenyl)methanone] | – | – | – | 167 to 169 | – | – | – | > 10 | > 10 | > 10 | > 10 | > 10 | IC50 (A375; Homo sapiens, A-375, A375 melanoma): > 10 µM; IC50 (WM164; Homo sapiens): > 10 µM |
| COc1cc(C(=O)c2nc3ccccc3[nH]2)cc(OC)c1OC [Compound 118, (1H-benzo[d]imidazol-2-yl)(3,4,5-trimethoxyphenyl)methanone] | – | – | – | 191 to 193 | – | – | – | > 10 | > 10 | > 10 | > 10 | > 10 | IC50 (A375; [8]): > 10 µM; IC50 (WM164; Homo sapiens, WM164, 48 h): > 10 µM |
| COc1cc(C(O)(c2nc3ccccc3s2)c2nc3ccccc3s2)cc(OC)c1OC [Compound 127, Bis(benzo[d]thiazol-2-yl)(3,4,5-trimethoxyphenyl)methanol] | – | – | – | 50 to 52 | – | – | – | > 10 | > 10 | > 10 | > 10 | > 10 | IC50 (A375; [8]): > 10 µM; IC50 (WM164; Homo sapiens, WM164, 48 h): > 10 µM |
| O=S(=O)(c1ccccc1)n1cc(B(O)O)c2ccccc21 [Compound 129, reference compound] | 55.1 ± 2.5 | 18.3 ± 1.4 | 59.9 ± 1.8 | – | > 100 | 39.3 ± 1.6 | 41.1 ± 1.8 | – | – | – | – | – | – |
| CC[C@]1(O)C[C@H]2CN(CCc3c([nH]c4ccccc34)[C@@](C(=O)OC)(c3cc4c(cc3OC)N(C=O)[C@H]3[C@@](O)(C(=O)OC)[C@H](OC(C)=O)[C@]5(CC)C=CCN6CC[C@]43[C@@H]65)C2)C1 [vincristine] | – | – | – | – | – | – | – | – | – | – | – | – | rotarod performance (Rotarod performance; day 4 to day 14): impaired performance; mean time on the rotating rod (Rotarod performance; end of 2 weeks (vehicle 151 s)): 104 s |

Now from value to molecule, other results behind:

| IC50 (DU-145) [µM] | IC50 (LNCaP [2]) [µM] | IC50 (PC-3 [3]) [µM] | melting point [°C] | Structure (SMILES) | IC50 (CV-1) [µM] | IC50 (TSU) [µM] | IC50 (PPC-1 [1]) [µM] | IC50 (PC-3 [4]) [µM] | IC50 [5] [µM] | IC50 (PPC-1 [6]) [µM] | IC50 (LNCaP [7]) [µM] | IC50 (Du 145) [µM] | also measured |
| --- | --- | --- | --- | --- | --- | --- | --- | --- | --- | --- | --- | --- | --- |
| 63.9 ± 1.9 | 29.6 ± 2.2 | 69.3 ± 2.1 | – | O=S(=O)(c1ccccc1)n1c(Br)cc2ccccc21 [Compound 3, 2-bromo-1-(benzenesulfonyl)indole] | > 100 | 44.9 ± 2 | 52.1 ± 1.1 | – | – | – | – | – | – |
| 72 ± 3.4 | 23.1 ± 4 | 73.9 ± 7.1 | – | O=S(=O)(c1ccccc1)n1c(B(O)O)cc2ccccc21 [Compound 7, 1-(phenylsulfonyl)-1H-indol-2-yl-boronic acid, reference compound] | > 100 | 48.2 ± 3.4 | 80.8 ± 1.2 | – | – | – | – | – | – |
| > 100 | > 100 | > 100 | 189 to 190 | O=C(c1cccc(-c2cc3ccccc3n2S(=O)(=O)c2ccccc2)c1)c1cc2ccccc2n1S(=O)(=O)c1ccccc1 [Compound 12, (1-Benzenesulfonyl-1H-indol-2-yl)-[3-(1-benzenesulfonyl-1H-indol-2-yl)phenyl]methanone] | > 100 | > 100 | > 100 | – | – | – | – | – | – |
| 0.131 | 0.051 | 0.069 ± 0.012 | – | COc1ccc(C(=O)c2cccc(-c3cc4ccccc4[nH]3)c2)cc1OC [Compound 83, (3,4-Dimethoxy-phenyl)-[3-(1H-indol-2-yl)-phenyl]-methanone] | – | 0.044 | 0.04 | – | – | – | – | – | IC50 (HT-29): 0.119 µM; IC50 (MCF-7): 0.043 µM |
| – | – | – | 252 to 254 | COc1cc(C(=O)c2cc3cc(Cl)ccc3[nH]2)cc(OC)c1OC [Compound 115, (5-Chloro-1H-indol-2-yl)(3,4,5-trimethoxyphenyl)methanone] | – | – | – | > 10 | 1 to 10 | > 10 | > 10 | > 10 | IC50 (A375; A375 melanoma): 1.47 µM; IC50 (WM164): 2.16 µM |
| – | – | – | 144 to 146 | COc1cc(C(=O)c2nc3ccccc3s2)cc(OC)c1OC [Compound 123a, Benzo[d]thiazol-2-yl(3,4,5-trimethoxyphenyl)methanone] | – | – | – | > 10 | > 10 | > 10 | > 10 | > 10 | IC50 (A375; [8]): > 10 µM; IC50 (WM164; Homo sapiens, WM164, 48 h): > 10 µM |
| – | – | – | 89 to 91 | COc1cc(C(=O)c2nc3ccccc3o2)cc(OC)c1OC [Compound 123b, Benzo[d]oxazol-2-yl(3,4,5-trimethoxyphenyl)methanone] | – | – | – | > 10 | > 10 | > 10 | > 10 | > 10 | IC50 (A375; [8]): > 10 µM; IC50 (WM164; Homo sapiens, WM164, 48 h): > 10 µM |
| 39.7 ± 2.6 | 5.8 ± 0.5 | 39.4 ± 1.7 | – | c1ccc2c(Cc3c[nH]c4ccccc34)c[nH]c2c1 [Compound 128, di(1H-indol-3-yl)methane, reference compound] | > 100 | 45.7 ± 1.1 | 31.8 ± 1.1 | – | – | – | – | – | – |
